The target of this assay is T1, NIK (Homo sapiens, UniProt Q99558).
T1 construct: Both assays utilize a truncated form of NIK containing only the catalytic domain; made in house; host or cells: baculovirus expression system (insect cells implied)
T1 sequence (Q99558 400-655 limits assumed): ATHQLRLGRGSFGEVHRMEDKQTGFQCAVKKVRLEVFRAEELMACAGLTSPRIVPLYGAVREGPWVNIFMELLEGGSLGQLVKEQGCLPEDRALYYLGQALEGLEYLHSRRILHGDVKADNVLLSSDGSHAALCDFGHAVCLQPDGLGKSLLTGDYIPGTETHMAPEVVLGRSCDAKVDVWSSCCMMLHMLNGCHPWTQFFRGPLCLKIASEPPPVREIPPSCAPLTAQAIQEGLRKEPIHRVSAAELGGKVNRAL
Briefly: homogenous time resolved fluorescence (HTRF) assay for NIK Ki measurement. It counts as biochemical. As to conditions: truncated NIK (catalytic domain only), autophosphorylation; 10 nM enzyme; 20, 100, 200 or 500 μM ATP; room temperature, 2 hours; read-out: Ki activity in the homogenous time resolved fluorescence (HTRF) assay for NIK. In general terms: TR-FRET usually uses a lanthanide donor and a delayed reading to cut background.
By Ki is commonly meant a dissociation constant, usually derived from enzyme kinetics or from competition with a known ligand. As for `CN1CCC2(C1)CN(c1nc(N)ncc1F)c1cc(C#CC3(O)CCCC3)ccc12` (racemic) [Example 190, (rac)-1-((1-(2-Amino-5-fluoro-4-pyrimidinyl)-1′-methyl-1,2-dihydrospiro[indole-3,3′-pyrrolidin]-6-yl)ethynyl)cyclopentanol], the inhibitory constant (Ki) was less than 1000 nM.
For `Cc1cc(C(C)(O)C#Cc2ccc3[nH]c(C)c(-c4ccncc4)c3c2)no1` (centres unmarked) [Example 104, 4-(2-methyl-3-(pyridin-4-yl)-1H-indol-5-yl)-2-(5-methylisoxazol-3-yl)but-3-yn-2-ol] the value was less than 1000 nM.
For `COc1ccc(C#CC(C)(O)c2cc(C)on2)cc1Nc1nc(N)ncc1Cl` (centres unmarked) [Example 150, 4-(3-(2-Amino-5-chloropyrimidin-4-ylamino)-4-methoxyphenyl)-2-(5-methylisoxazol-3-yl)but-3-yn-2-ol] the value was less than 1000 nM; for `CN1CC2(C1)CN(c1nc(N)ncc1Cl)c1cc(C#CC(C)(O)c3nccs3)ccc12` (single isomer, unassigned) [Example 182a, (2S*)-4-(1′-(2-Amino-5-chloro-4-pyrimidinyl)-1-methyl-1′,2′-dihydrospiro[azetidine-3,3′-indol]-6′-yl)-2-(1,3-thiazol-2-yl)-3-Butyn-2-ol], 1000 to 30000 nM; for `CC(O)(C#Cc1ccc2c(c1)N(c1ncns1)CC2(C)C)c1cnccn1` (centres unmarked) [Example 13, 4-(3,3-dimethyl-1-(1,2,4-thiadiazol-5-yl)indolin-6-yl)-2-(pyrazin-2-yl)but-3-yn-2-ol], less than 1000 nM.
The same measure for `CC1(C)CN(c2nc(N)ncc2F)c2cc(C#CC3(O)CCCC3)ccc21` [Example 65, 1-((1-(2-amino-5-fluoro-4-pyrimidinyl)-3,3-dimethyl-2,3-dihydro-1H-indol-6-yl)ethynyl)cyclopentanol]: less than 1000 nM; for `Nc1ncc(OCCOCCN2CCOCC2)c(-c2c[nH]c3ccc(C#CC4(O)CCCC4)cc23)n1` [Example 231, 1-((3-(2-Amino-5-(2-(2-(4-morpholinyl)ethoxy)ethoxy)-4-pyrimidinyl)-1H-indol-5-yl)ethynyl)cyclopentanol]: less than 1000 nM; for `Nc1ncc(Cl)c(-c2cn(CC3CCCN3)c3ccc(C#CC4(O)CCCC4)cc23)n1` (centres unmarked) [Example 113, 1-(2-(3-(2-amino-5-chloropyrimidin-4-yl)-1-(pyrrolidin-2-ylmethyl)-1H-indol-5-yl)ethynyl)cyclopentanol]: less than 1000 nM.
For `Nc1ncc(Cl)c(-c2cn(CC3CCOC3)c3ccc(C#CC4(O)CCCC4)cc23)n1` (centres unmarked) [Example 134, 1-(2-(3-(2-amino-5-chloropyrimidin-4-yl)-1-((tetrahydrofuran-3-yl)methyl)-1H-indol-5-yl)ethynyl)cyclopentanol], the inhibitory constant (Ki) was less than 1000 nM.
The same measure for `CN1CCC2(C1)CN(c1nc(N)nc3[nH]cnc13)c1cc(C#CC3(O)CCCC3)ccc12` (centres unmarked) [Example 191, 1-((1-(2-Amino-9H-purin-6-yl)-1′-methyl-1,2-dihydrospiro[indole-3,3′-pyrrolidin]-6-yl)ethynyl)cyclopentanol]: less than 1000 nM.
For `Nc1ncc(Cl)c(N2CC(CO)(CO)c3ccc(C#CC4(O)CCCC4)cc32)n1` [Example 62, 1-((1-(2-amino-5-chloro-4-pyrimidinyl)-3,3-bis(hydroxymethyl)-2,3-dihydro-1H-indol-6-yl)ethynyl)cyclopentanol] the value was less than 1000 nM.
For `Cc1cnc(C(C)(O)C#Cc2ccc3c(c2)N(c2ccnc(N)n2)CC3)s1` (centres unmarked) [Example 289, 4-(1-(2-Amino-4-pyrimidinyl)-2,3-dihydro-1H-indol-6-yl)-2-(5-methyl-1,3-thiazol-2-yl)-3-Butyn-2-ol] the value was less than 1000 nM.
For the compound `CC(O)(C#Cc1ccc(O[C@@H]2CCOC2)c(Nc2nc(N)ncc2Cl)c1)c1nccs1` (some centres unmarked) [Example 159], the inhibitory constant (Ki) was less than 1000 nM.
The same measure for `Cn1cnc([C@H](O)C#Cc2ccc3c(c2)N(c2nc(N)ncc2Cl)CC3(C)C)c1` (single isomer, unassigned) [Example 47, (1R*)-3-(1-(2-amino-5-chloro-4-pyrimidinyl)-3,3-dimethyl-2,3-dihydro-1H-indol-6-yl)-1-(1-methyl-1H-imidazol-4-yl)-2-propyn-1-ol]: less than 1000 nM.

These data come from US20110086834A1, “ALKYNYL ALCOHOLS AS KINASE INHIBITORS” (AMGEN INC., priority 2008, published 2011).
